Here are results for eight compounds from patent publication US4322423A, “4-Phenyl-4,5,6,7-tetrahydro-thieno(2,3-C)pyridines and salts thereof” (Boehringer Ingelheim GmbH, priority 1977, dated 1982).

For test [1], the system named is hypothermic effect caused by reserpine. The experiment in a line: reserpine-antagonism, elimination of the hypothermic effect caused by reserpine. The format is in vivo. The following applies: Mus musculus, mice, oral, 17 hours after 2 mg/kg i.p. reserpine. The method, then: A further test for determining the anti-depressant activity is the reserpine-antagonism, the elimination of the hypothermic effect caused by reserpine. The test is carried out on mice, using 5 animals per dose. 17 Hours after i.p. administration of 2 mg/kg of reserpine, the body temperature is measured peripherally at a room temperature of 19° C. Afterwards, the test substance is administered orally, and the body temperature is measured after elapse of 1, 3, 5, and 7 hours. For each measurement a medium effective dose (ED50) is determined. This is the dose at which the body temperature of the animals treated with reserpine approaches the normal temperature of the untreated controls by 50%.

The subject of test [2] is uptake of serotonine in the neurons. In words: inhibition of serotonine uptake, synaptosomes from homogenized isolated cerebrum of the rat. The format is biochemical. The settings on record: ten minutes at 37° C., 50% uptake inhibition, read-out: Serotinine inhibition IC 50. The method, then:
(§1) It is known that various forms of depressions cause in certain sections of the brain a deficiency of biogenetic amines, especially of noradrenaline and serotonine; the biogenetic amines may be multiplied by inhibiting the uptake in the neurons. […] The test is performed on the homogenized, isolated cerebrum of the rat. A suspension of synaptosomes thus obtained is incubated with […] noradrenaline or serotonine and various concentrations of a solution of the test substance in water for ten minutes at 37° C. After completion of the incubation, the medium is separated by filtering, and the radioactivity of the suspension of synaptosomes is measured. A control test without test substance is made simultaneously in order to determine the quantity of uptake of the radioactive amines. The quantity of the test substance in mols which suffices for inhibiting 50% of the uptake is designated as IC 50.

In test [3] the test system is uptake of noradrenaline in the neurons. The experiment in a line: inhibition of noradrenaline uptake, synaptosomes from homogenized isolated cerebrum of the rat. It is filed as biochemical. The following applies: ten minutes at 37° C., 50% uptake inhibition, read-out: Noradrenalin inhibition IC 50. The method, then:
as §1

The mark [4] stands for this setting: 1 hr., read-out: Reserpine antagonism ED50 after 1 hr.
Setting [5] is: 3 hrs., read-out: Reserpine antagonism ED50 after 3 hrs.
The mark [6] stands for this setting: 5 hrs., read-out: Reserpine antagonism ED50 after 5 hrs.
Setting [7] is: 7 hrs., read-out: Reserpine antagonism ED50 after 7 hrs.

Each structure is given as a SMILES string. Like-named read-outs stand apart in the source and are kept apart here.

Consider `Cc1cc2c(s1)CN(C)CC2c1ccc(Br)cc1.Cl` (stereo not drawn) [2,6-Dimethyl-4-(p-bromophenyl)-4,5,6,7-tetrahydro-thieno[2,3-c]pyridine hydrochloride], for which the ED50 in test [1] (setting [4]) stood at 1.7 mg/kg; in test [1] (setting [5]), 2.7 mg/kg; in test [1] (setting [6]), 4.6 mg/kg; in test [1] (setting [7]), 80 mg/kg. Further, the IC50 is 0.54 µM in test [2] and 0.28 µM in test [3].

In the case of `Cc1cc2c(s1)CN(C)CC2c1ccccc1.Cl` (stereo not drawn) [2,6-dimethyl-4-phenyl-4,5,6,7-tetrahydro-thieno[2,3-c]pyridine hydrochloride], the ED50 in test [1] (setting [4]) came out at 19 mg/kg; in test [1] (setting [5]), 25 mg/kg; in test [1] (setting [6]), 80 mg/kg; in test [1] (setting [7]) it was 80 mg/kg. Also, the IC50 in test [2] is 80 µM; in test [3], 0.56 µM.

Consider `CN1Cc2sc(Cl)cc2C(c2ccc(Cl)cc2)C1.Cl` (stereo not drawn) [2-Chloro-4-(p-chloro-phenyl)-6-methyl-4,5,6,7-tetrahydro-thieno[2,3-c]pyridine hydrochloride], for which the ED50 in test [1] (setting [4]) amounted to 16 mg/kg; in test [1] (setting [5]), 8.5 mg/kg; in test [1] (setting [6]), 9.5 mg/kg; in test [1] (setting [7]) it was 10 mg/kg. The IC50 in test [2] was found to be 5.4 µM; in test [3] it was 1.6 µM.

In the case of `CN1Cc2sc(Cl)cc2C(c2ccccc2)C1.Cl` (stereo not drawn) [2-Chloro-4-phenyl-6-methyl-4,5,6,7-tetrahydro-thieno[2,3-c]pyridine hydrochloride], the ED50 in test [1] (setting [4]) amounted to 13 mg/kg; in test [1] (setting [5]) it was 30 mg/kg; in test [1] (setting [6]), 90 mg/kg; in test [1] (setting [7]), 90 mg/kg. Moreover, the IC50 was above 10 µM in test [2] and 1.4 µM in test [3].

Take `CN1Cc2sc(Br)cc2C(c2ccc(Br)cc2)C1` (stereo not drawn) [2-bromo-4-(p-bromophenyl)-6-methyl-4,5,6,7-tetrahydro-thieno[2,3-c]pyridine]: the ED50 worked out at 55 mg/kg in test [1] (setting [4]), 7.5 mg/kg in test [1] (setting [5]), 32 mg/kg in test [1] (setting [6]) and 100 mg/kg in test [1] (setting [7]). Besides, the values for the IC50 in test [2] and in test [3] were 4.1 µM and 1.6 µM, respectively.

Regarding `Cc1ccc(C2CN(C)Cc3sc(Br)cc32)cc1.Cl` (stereo not drawn) [2-bromo-4-(p-tolyl)-6-methyl-4,5,6,7-tetrahydro thieno[2,3-c] pyridine hydrochloride], the ED50 was 48 mg/kg in test [1] (setting [4]), 80 mg/kg in test [1] (setting [5]), 80 mg/kg in test [1] (setting [6]) and 80 mg/kg in test [1] (setting [7]). Besides, the IC50 is 9 µM in test [2] and 0.64 µM in test [3].

`CN1Cc2sc(Cl)cc2C(c2ccc(Br)cc2)C1.Cl` (stereo not drawn) [2-chloro-4-(4-bromophenyl)-6-methyl-4,5,6,7-tetrahydro-thieno[2,3-c] pyridine hydrochloride]: the ED50 in test [1] (setting [4]) came out at 50 mg/kg; in test [1] (setting [5]), 3 mg/kg; in test [1] (setting [6]) it was 4.2 mg/kg; in test [1] (setting [7]) it was 38 mg/kg. The IC50 in test [2] is 3.5 µM; in test [3], 1 µM.

For `Cc1ccc(C2CN(C)Cc3sc(Cl)cc32)cc1.Cl` (stereo not drawn) [2-chloro-4-(p-tolyl)-6-methyl-4,5,6,7-tetrahydro-thieno[2,3-c] pyridine hydrochloride], the 50% effective dose (ED50) in test [1] (setting [4]) worked out at 44 mg/kg; in test [1] (setting [5]), 12.5 mg/kg; in test [1] (setting [6]), 18 mg/kg; in test [1] (setting [7]), 20 mg/kg. Also, the IC50 is above 10 µM in test [2] and 0.9 µM in test [3].

As usually defined, the ED50 is the dose that gives a 50% effect, or the effect in half of the subjects.
